Source: patent US20230348418A1, “ISOINDOLINONE COMPOUNDS” (Monte Rosa Therapeutics, Inc., priority 2021, published 2023)
Like-named read-outs stand apart in the source and are kept apart here.

What was measured:
[1] = target: CRBN-DDB1 (Homo sapiens, UniProt Q96SW2); assay: HTRF binding of compounds to CRBN
Method: Compound activity was monitored in a Homogenous Time-Resolved Fluorescence (HTRF) assay using 1-[5-({2-[2-(2-{[2-(2,6-dioxopiperidin-3-yl)-1,3-dioxo-2,3-dihydro-1H-isoindol-4-yl]oxy}acetamido)ethoxy]ethyl}carbamoyl)pentyl]-3,3-dimethyl-2-[(1E,3E)-5-[(2E)-1,3,3-trimethyl-5-sulfo-2,3-dihydro-1H-indol-2-ylidene]penta-1,3-dien-1-yl]-3H-indol-1-ium-5-sulfonate as a fluorescent probe. […] Compounds were stored in dry, ambient temperatures at 10 mM. A 10-point, 1:3 dilution series was prepared from 10 mM stock concentrations in Echo-compatible LDV plates. 10 nL of each compound dilution series was dispensed into assays wells using an Echo 650 (Labcyte inc. USA). […] The assay was then allowed to incubate for 30 min at ambient temperature after transferring compound. […] Analysis and IC50 values were derived using KNIME analytics (KNIME Zurich) transformation and fitting within Collaborative Drug Discovery (Collaborative Drug Discovery USA). Ki was derived from the geometric mean of the IC50 values using the Cheng-Prustoff transformation.

[2] = target: T1, Full length wild-type cereblon CRBN (Homo sapiens, UniProt Q96SW2); assay: Fluorescence polarization (FP) assay, cereblon binding
T1 construct: Full length wild-type cereblon CRBN (80.0 nM, 10 μL) was incubated in assay buffer
T1 sequence (Q96SW2 whole entry): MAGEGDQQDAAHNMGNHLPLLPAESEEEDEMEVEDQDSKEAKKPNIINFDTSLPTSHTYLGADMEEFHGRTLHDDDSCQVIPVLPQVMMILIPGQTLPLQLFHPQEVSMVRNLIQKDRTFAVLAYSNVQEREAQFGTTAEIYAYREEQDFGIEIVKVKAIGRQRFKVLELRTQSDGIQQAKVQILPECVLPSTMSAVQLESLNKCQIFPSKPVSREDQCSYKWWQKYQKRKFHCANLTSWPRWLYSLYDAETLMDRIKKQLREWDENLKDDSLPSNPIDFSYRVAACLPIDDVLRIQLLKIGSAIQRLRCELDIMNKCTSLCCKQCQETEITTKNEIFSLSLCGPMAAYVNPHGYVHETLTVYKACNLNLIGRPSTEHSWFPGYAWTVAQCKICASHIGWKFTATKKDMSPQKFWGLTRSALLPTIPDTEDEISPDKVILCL
Excerpt: Compound activity was monitored in a fluorescence polarization (FP) homogeneous assay using 1-[5-({2-[2-(2-{[2-(2,6-dioxopiperidin-3-yl)-1,3-dioxo-2,3-dihydro-1H-isoindol-4-yl]oxy}acetamido)ethoxy]ethyl}carbamoyl)pentyl]-3,3-dimethyl-2-[(1E,3E)-5-[(2E)-1,3,3-trimethyl-5-sulfo-2,3-dihydro-1H-indol-2-ylidene]penta-1,3-dien-1-yl]-3H-indol-1-ium-5-sulfonate as a fluorescent probe. Unless otherwise stated, all reagents were purchased from Sigma Aldrich. […] Full length wild-type cereblon CRBN (80.0 nM, 10 μL) was incubated in assay buffer containing 20 mM HEPES (pH 8.0), […], 0.5 mM TCEP and 0.05% Tween 20 in the presence or absence of compound (300 nL). Inhibitors were stored as 10 mM DMSO stocks in an inert environment (low humidity, dark, low oxygen, room temperature) using the Storage Pod System. […] Following incubation at room temperature for 30 min, the assay was initiated by dispensing the probe to a final concentration of […] (2.5 nL of a 20 μM stock) using the Echo E5XX. […] The FP signal was subsequently normalized to the no-compound control (i.e., DMSO). Analysis and IC50 values were derived using Dotmatics (Dotmatics UK) software.

[3] = read-out: HTRF Class (Cereblon binding, HTRF IC50)
[4] = bounds stated in the text lists b2059-b2061, read-out: IC50 value
[5] = cereblon binding, class code, read-out: rFP IC50

Sequence of CRBN-DDB1 (Q96SW2 whole entry): as above
Sequence of CRBN-DDB1 (Q16531 whole entry partner): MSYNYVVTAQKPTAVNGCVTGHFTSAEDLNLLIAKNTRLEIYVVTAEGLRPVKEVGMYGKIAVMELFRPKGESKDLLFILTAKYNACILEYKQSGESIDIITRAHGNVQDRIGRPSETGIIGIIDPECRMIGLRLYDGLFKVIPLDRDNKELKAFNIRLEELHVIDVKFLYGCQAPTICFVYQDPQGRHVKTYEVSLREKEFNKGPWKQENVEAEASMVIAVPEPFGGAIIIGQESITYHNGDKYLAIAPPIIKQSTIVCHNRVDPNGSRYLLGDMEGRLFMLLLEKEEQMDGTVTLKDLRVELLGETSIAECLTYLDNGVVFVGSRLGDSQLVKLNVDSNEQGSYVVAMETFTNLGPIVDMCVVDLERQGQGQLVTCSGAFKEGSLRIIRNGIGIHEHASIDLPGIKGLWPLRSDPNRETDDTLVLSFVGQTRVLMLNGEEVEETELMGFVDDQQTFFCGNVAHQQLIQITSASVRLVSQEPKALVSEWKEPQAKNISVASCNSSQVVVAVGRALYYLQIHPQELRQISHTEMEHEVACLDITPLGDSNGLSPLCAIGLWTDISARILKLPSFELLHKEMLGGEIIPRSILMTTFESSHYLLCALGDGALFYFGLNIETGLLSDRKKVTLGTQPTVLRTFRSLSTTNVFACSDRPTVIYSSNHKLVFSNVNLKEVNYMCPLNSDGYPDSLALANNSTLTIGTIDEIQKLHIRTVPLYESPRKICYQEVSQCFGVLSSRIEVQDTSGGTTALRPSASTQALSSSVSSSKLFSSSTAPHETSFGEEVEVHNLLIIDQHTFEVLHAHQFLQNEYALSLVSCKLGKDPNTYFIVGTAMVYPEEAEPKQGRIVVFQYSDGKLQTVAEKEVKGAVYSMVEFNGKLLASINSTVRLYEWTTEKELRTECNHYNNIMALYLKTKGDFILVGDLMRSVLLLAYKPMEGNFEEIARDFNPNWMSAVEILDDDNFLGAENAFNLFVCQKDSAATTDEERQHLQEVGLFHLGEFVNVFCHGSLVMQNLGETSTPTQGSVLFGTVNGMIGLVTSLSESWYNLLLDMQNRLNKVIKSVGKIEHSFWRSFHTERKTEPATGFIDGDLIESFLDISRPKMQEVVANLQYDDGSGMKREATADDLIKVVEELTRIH

Cc1cc(NC(=O)OCc2ccc3c(c2)C(=O)N(C2CCC(=O)NC2=O)C3)cc(C#N)c1C (stereo not shown) [Compound 186]
IC50 [1]: 0.1 to 1 µM

Cc1cc(NC(=O)OCc2ccc3c(c2)C(=O)N(C2CCC(=O)NC2=O)C3)ncc1N1CCC[C@H]1C (stereo partly drawn) [Compound 237, (2-(2,6-dioxopiperidin-3-yl)-3-oxoisoindolin-5-yl)methyl (4-methyl-5-((R)-2-methylpyrrolidin-1-yl)pyridin-2-yl)carbamate]
IC50 [1, 3]: < 0.1 µM

Cc1cc(F)c(NC(=O)OCc2ccc3c(c2)C(=O)N(C2CCC(=O)NC2=O)C3)cc1OC(C)C (stereo not shown) [Compound 230, (2-(2,6-dioxopiperidin-3-yl)-3-oxoisoindolin-5-yl)methyl (2-fluoro-5-isopropoxy-4-methylphenyl)carbamate]
IC50 [1, 3]: < 0.1 µM

O=C1CCC(N2Cc3ccc(COC(=O)Nc4cc(Cl)cc5c4OCC5)cc3C2=O)C(=O)N1 (stereo not shown) [Compound 189]
IC50 [1]: < 0.1 µM

O=C1CCC(N2Cc3ccc(COC(=O)Nc4cccc5c4OCC5)cc3C2=O)C(=O)N1 (stereo not shown) [Compound 173]
IC50 [1]: 0.1 to 1 µM

Cc1cc(F)c(NC(=O)OCc2ccc3c(c2)C(=O)N(C2CCC(=O)NC2=O)C3)cc1C(F)(F)F (stereo not shown) [Compound 233]
IC50 [1]: 0.1 to 1 µM

C[C@@H]1CCCN1c1cnc(NC(=O)OCc2ccc3c(c2)C(=O)N(C2CCC(=O)NC2=O)C3)c(F)c1 (stereo partly drawn) [Compound 232, (2-(2,6-dioxopiperidin-3-yl)-3-oxoisoindolin-5-yl)methyl (3-fluoro-5-((R)-2-methylpyrrolidin-1-yl)pyridin-2-yl)carbamate]
IC50 [1, 3]: < 0.1 µM

CCc1cccc(NC(=O)OCc2ccc3c(c2)C(=O)N(C2CCC(=O)NC2=O)C3)c1 (stereo not shown) [Compound 220, (2-(2,6-dioxopiperidin-3-yl)-3-oxoisoindolin-5-yl)methyl (3-ethylphenyl)carbamate]
IC50 [1, 3]: 0.1 to 1 µM

O=C1CCC(N2Cc3ccc(COC(=O)NC45CC(N6CCOCC6)(C4)C5)cc3C2=O)C(=O)N1 (stereo not shown) [Compound 215, (2-(2,6-dioxopiperidin-3-yl)-3-oxoisoindolin-5-yl)methyl (3-morpholinobicyclo[1.1.1]pentan-1-yl)carbamate]
IC50 [1, 3]: 0.1 to 1 µM

O=C1CCC(N2Cc3ccc(COC(=O)Nc4ccc(C(O)C(F)(F)F)nc4)cc3C2=O)C(=O)N1 (stereo not shown) [Compound 238]
IC50 [1]: 0.1 to 1 µM

Cc1ccc(NC(=O)OCc2ccc3c(c2)C(=O)N(C2CCC(=O)NC2=O)C3)nc1Cl (stereo not shown) [Compound 183, (2-(2,6-dioxopiperidin-3-yl)-3-oxoisoindolin-5-yl)methyl (6-chloro-5-methylpyridin-2-yl)carbamate]
IC50 [1, 3]: 0.1 to 1 µM

O=C1CCC(N2Cc3ccc(COC(=O)Nc4cc(OC(F)F)c(F)cn4)cc3C2=O)C(=O)N1 (stereo not shown) [Compound 227, (2-(2,6-dioxopiperidin-3-yl)-3-oxoisoindolin-5-yl)methyl (4-(difluoromethoxy)-5-fluoropyridin-2-yl)carbamate]
IC50 [1, 3]: 0.1 to 1 µM

O=C1CCC(N2Cc3ccc(COC(=O)NC4CN(Cc5ccccc5)C4)cc3C2=O)C(=O)N1 (stereo not shown) [Compound 168]
IC50 [1]: 0.1 to 1 µM

CC1(c2ccc(NC(=O)OCc3ccc4c(c3)C(=O)N(C3CCC(=O)NC3=O)C4)cc2Cl)COC1 (stereo not shown) [Compound 236, (2-(2,6-dioxopiperidin-3-yl)-3-oxoisoindolin-5-yl)methyl (3-chloro-4-(3-methyloxetan-3-yl)phenyl)carbamate]
IC50 [1, 3]: < 0.1 µM

CC(C)Oc1ccc(F)c(NC(=O)OCc2ccc3c(c2)C(=O)N(C2CCC(=O)NC2=O)C3)c1 (stereo not shown) [Compound 221, (2-(2,6-dioxopiperidin-3-yl)-3-oxoisoindolin-5-yl)methyl (2-fluoro-5-isopropoxyphenyl)carbamate]
IC50 [1, 3]: < 0.1 µM

O=C1CCC(N2Cc3ccc(COC(=O)Nc4ccc(N5CC6CCC(C5)O6)nc4)cc3C2=O)C(=O)N1 (stereo not shown) [Compound 65]
IC50 [2, 4]: < 1.1 µM

Cc1ccccc1-c1ccc(NC(=O)OCc2ccc3c(c2)C(=O)N(C2CCC(=O)NC2=O)C3)cn1 (stereo not shown) [Compound 86]
IC50 [2, 4]: < 1.7 µM | IC50 [2, 5]: 0.5 to 1.1 µM

CC1CCCN1c1ccc(NC(=O)OCc2ccc3c(c2)C(=O)N(C2CCC(=O)NC2=O)C3)cn1 (stereo not shown) [Compound 74]
IC50 [2, 4]: < 1.1 µM

Cc1cc(NC(=O)OCc2ccc3c(c2)C(=O)N(C2CCC(=O)NC2=O)C3)cc(C)c1C#N (stereo not shown) [Compound 108]
IC50 ([2]; IC50 value, bounds stated in the text lists b2059-b2061): < 1.1 µM

O=C1CCC(N2Cc3ccc(COC(=O)Nc4ccc(N5CCC5)nc4)cc3C2=O)C(=O)N1 (stereo not shown) [Compound 107]
IC50 [2, 4]: < 1.1 µM

O=C1CCC(N2Cc3ccc(COC(=O)Nc4ccc(N5CCCCC5)nn4)cc3C2=O)C(=O)N1 (stereo not shown) [Compound 75]
IC50 [2, 4]: < 1.1 µM

CN(C)C1CN(c2ccc(NC(=O)OCc3ccc4c(c3)C(=O)N(C3CCC(=O)NC3=O)C4)cn2)C1 (stereo not shown) [Compound 89]
IC50 [2, 4]: < 1.7 µM | IC50 [2, 5]: 0.5 to 1.1 µM

O=C1CCC(N2Cc3ccc(COC(=O)Nc4cnc(N5CCCCC5)nc4)cc3C2=O)C(=O)N1 (stereo not shown) [Compound 64]
IC50 [2, 4]: < 1.7 µM | IC50 [2, 5]: 0.5 to 1.1 µM

O=C1CCC(N2Cc3ccc(COC(=O)Nc4cnc(N5CCCCC5)cn4)cc3C2=O)C(=O)N1 (stereo not shown) [Compound 94]
IC50 [2, 4]: < 1.1 µM

COc1ccc(Cl)cc1NC(=O)OCc1ccc2c(c1)C(=O)N(C1CCC(=O)NC1=O)C2 (stereo not shown) [Compound 14]
IC50 [2, 4]: < 1.7 µM | IC50 [2, 5]: 1.1 to 1.7 µM

CN1CCC(COc2cc(Cl)cc(NC(=O)OCc3ccc4c(c3)C(=O)N(C3CCC(=O)NC3=O)C4)c2)C1 (stereo not shown) [Compound 40]
IC50 [2, 4]: < 1.1 µM

O=C1CCC(N2Cc3ccc(COC(=O)N4CCN(c5ccccc5)CC4)cc3C2=O)C(=O)N1 (stereo not shown) [Compound 36]
IC50 [2, 4]: < 1.1 µM

CN1CCC(Oc2cc(Cl)cc(NC(=O)OCc3ccc4c(c3)C(=O)N(C3CCC(=O)NC3=O)C4)c2)C1 (stereo not shown) [Compound 46]
IC50 [2, 4]: < 1.1 µM

CC1COc2cc(NC(=O)OCc3ccc4c(c3)C(=O)N(C3CCC(=O)NC3=O)C4)ccc21 (stereo not shown) [Compound 103]
IC50 [2, 4]: < 1.7 µM | IC50 [2, 5]: 0.5 to 1.1 µM

Cc1cc(C)cc(NC(=O)OCc2ccc3c(c2)C(=O)N(C2CCC(=O)NC2=O)C3)c1 (stereo not shown) [Compound 8]
IC50 [2, 4]: < 1.7 µM | IC50 [2, 5]: 0.5 to 1.1 µM

Cc1cc(C#N)cc(NC(=O)OCc2ccc3c(c2)C(=O)N(C2CCC(=O)NC2=O)C3)c1 (stereo not shown) [Compound 112, (2-(2,6-dioxopiperidin-3-yl)-3-oxoisoindolin-5-yl)methyl (3-cyano-5-methylphenyl)carbamate]
IC50 [2, 4]: < 1.1 µM

CC1CCN(c2ccc(NC(=O)OCc3ccc4c(c3)C(=O)N(C3CCC(=O)NC3=O)C4)cn2)C1 (stereo not shown) [Compound 69]
IC50 [2, 4]: < 1.1 µM

O=C1CCC(N2Cc3ccc(COC(=O)NC4CCCCC4)cc3C2=O)C(=O)N1 (stereo not shown) [Compound 28]
IC50 [2, 4]: < 1.7 µM | IC50 [2, 5]: 1.1 to 1.7 µM

COc1cc(Cl)ccc1NC(=O)OCc1ccc2c(c1)C(=O)N(C1CCC(=O)NC1=O)C2 (stereo not shown) [Compound 38]
IC50 [2, 4]: < 1.7 µM | IC50 [2, 5]: 0.5 to 1.1 µM

O=C1CCC(N2Cc3ccc(COC(=O)Nc4cc(Cl)cc(OCC5CCNC5)c4)cc3C2=O)C(=O)N1 (stereo not shown) [Compound 16]
IC50 [2, 4]: < 1.1 µM

CC(C)(C)c1cccc(NC(=O)OCc2ccc3c(c2)C(=O)N(C2CCC(=O)NC2=O)C3)c1 (stereo not shown) [Compound 153, (2-(2,6-dioxopiperidin-3-yl)-3-oxoisoindolin-5-yl)methyl (3-(tert-butyl)phenyl)carbamate]
IC50 [2, 4]: < 1.1 µM | IC50 [2, 5]: 0.5 to 1.1 µM

Cc1c(Cl)cc(NC(=O)OCc2ccc3c(c2)C(=O)N(C2CCC(=O)NC2=O)C3)cc1OCC1CCNC1 (stereo not shown) [Compound 52]
IC50 [2, 4]: < 1.7 µM | IC50 [2, 5]: 0.5 to 1.1 µM

O=C1CCC(N2Cc3ccc(COC(=O)Nc4cc(OCCN5CCOCC5)cc(OC(F)(F)F)c4)cc3C2=O)C(=O)N1 (stereo not shown) [Compound 106]
IC50 [2, 4]: < 1.7 µM | IC50 [2, 5]: 0.5 to 1.1 µM
